Measurements taken from ChEMBL document CHEMBL1201862, “PubChem BioAssay data set” (2004).
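Compound exposure: 48 hours, 5 concentrations, 96-well plates. The concentration for 50% growth inhibition is given as GI50.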 Calls of active or inactive are those of the source. No stated cut-off is given here; in the data, active = GI50 up to about 1.1 µM and inactive = higher.

How the values were obtained:
Experiment in all cases: growth of human tumour cells (NCI), 48 h
A549 = test system: A549
SN12C = test system: SN12C
SK-OV-3 = test system: SK-OV-3
HL-60 = test system: HL-60
MDA-N = test system: MDA-N
HCC 2998 = test system: HCC 2998
SNB-75 = test system: SNB-75
T47D = test system: T47D
SK-MEL-2 = test system: SK-MEL-2
OVCAR-8 = test system: OVCAR-8
NCI-H460 = test system: NCI-H460
HT-29 = test system: HT-29
SF-268 = test system: SF-268
Hs-578T = test system: Hs-578T
OVCAR-4 = test system: OVCAR-4
LOX IMVI = test system: LOX IMVI
DU-145 = test system: DU-145
NCI/ADR-RES = test system: NCI/ADR-RES
KM12 = test system: KM12
SNB-19 = test system: SNB-19

Row | Structure (SMILES) | GI50 (A549) | GI50 (SN12C) | GI50 (SK-OV-3) | GI50 (HL-60) | GI50 (MDA-N) | GI50 (HCC 2998) | GI50 (SNB-75) | GI50 (T47D) | GI50 (SK-MEL-2) | GI50 (OVCAR-8) | GI50 (NCI-H460) | GI50 (HT-29) | GI50 (SF-268) | GI50 (Hs-578T) | GI50 (OVCAR-4) | GI50 (LOX IMVI) | GI50 (DU-145) | GI50 (NCI/ADR-RES) | GI50 (KM12) | GI50 (SNB-19)
1 | Nc1ccc2c(c1)NC(=O)[C@@H]1CCCN1C2=O | > 100 µM (inactive) | > 100 µM (inactive) | > 100 µM (inactive) | > 100 µM (inactive) | > 100 µM (inactive) | > 100 µM (inactive) | > 100 µM (inactive) | 96.6 µM (inactive) | > 100 µM (inactive) | > 100 µM (inactive) | > 100 µM (inactive) | > 100 µM (inactive) | > 100 µM (inactive) | > 100 µM (inactive) | > 100 µM (inactive) | > 100 µM (inactive) | > 100 µM (inactive) | > 100 µM (inactive) | > 100 µM (inactive) | > 100 µM (inactive)
2 | C=C1C(=O)OC2C3OC(C)(CCC(O)C3COC(C)=O)CC(OC(=O)/C(=C/C)COC(C)=O)C12 (stereo not given) | 7.33 µM (inactive) | 0.738 µM (active) | 6.64 µM (inactive) | 0.0248 µM (active) | 0.155 µM (active) | 1.3 µM (inactive) | 4.66 µM (inactive) | 0.142 µM (active) | 1.13 µM (inactive) | 0.532 µM (active) | 0.752 µM (active) | 0.154 µM (active) | 0.982 µM (active) | 0.634 µM (active) | 1.9 µM (inactive) | 0.163 µM (active) | 0.778 µM (active) | 0.59 µM (active) | 1.5 µM (inactive) | 5.32 µM (inactive)
